Like-named read-outs stand apart in the source and are kept apart here.
Key:
Mino cells = test: Antiproliferative effect, MTS cell viability assay, Mino cells; type: cell-based; details: Homo sapiens, MINO, Mino mantle cell lymphoma cells; read-out: IC50 (anti-proliferation) Mino cells
Procedure, shortened: (§1)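 Readout was MTS-derived formazan absorbance (490 nm) reflecting metabolically active cells. Treatment lasted 72 h over a 0–10 μM range (0.001, 0.01, 0.1, 1, 10 μM) in JeKo-1 and Mino B-cell malignancy cells.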

JeKo-1 cells = test: Antiproliferative effect, MTS cell viability assay, JeKo-1 cells; type: cell-based; details: Homo sapiens; JeKo-1 mantle cell lymphoma cells; read-out: IC50 (anti-proliferation) JeKO-1 cells
Procedure, shortened: as §1

BTK = BTK (Homo sapiens, UniProt Q06187); test: Degradation of BTK protein in Namalwa cells (Western blot; DC50, Dmax); details: for DC50: cell line not given
BTK, sequence (Q06187 whole entry): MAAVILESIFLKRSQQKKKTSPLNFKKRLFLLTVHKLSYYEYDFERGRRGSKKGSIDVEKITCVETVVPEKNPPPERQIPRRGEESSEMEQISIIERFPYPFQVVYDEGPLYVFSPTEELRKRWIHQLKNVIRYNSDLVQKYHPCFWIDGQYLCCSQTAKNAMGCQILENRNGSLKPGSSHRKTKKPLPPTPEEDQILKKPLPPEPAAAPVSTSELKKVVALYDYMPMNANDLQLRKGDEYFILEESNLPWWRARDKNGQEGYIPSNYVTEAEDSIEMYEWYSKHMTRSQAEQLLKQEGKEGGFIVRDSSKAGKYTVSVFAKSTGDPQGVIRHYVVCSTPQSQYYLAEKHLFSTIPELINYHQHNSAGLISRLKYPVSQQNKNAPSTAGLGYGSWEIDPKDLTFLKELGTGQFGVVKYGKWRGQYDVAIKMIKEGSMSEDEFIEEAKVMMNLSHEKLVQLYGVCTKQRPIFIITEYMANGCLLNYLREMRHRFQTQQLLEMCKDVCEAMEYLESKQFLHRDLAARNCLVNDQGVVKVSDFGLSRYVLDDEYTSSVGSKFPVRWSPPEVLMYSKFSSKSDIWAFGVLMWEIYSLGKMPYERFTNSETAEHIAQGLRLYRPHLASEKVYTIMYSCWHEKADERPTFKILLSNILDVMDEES

[1] = read-out: DC50 (BTK degradation), concentration giving 50% reduction of BTK expression level
[2] = read-out: Dmax (BTK degradation)

Dmax (BTK) [%]	DC50 (BTK; BTK degradation) [µM]	DC50 (BTK; [1]) [µM]	Dmax (BTK; [2]) [%]	SMILES	IC50 (Mino cells) [µM]	IC50 (JeKo-1 cells) [µM]
> 75	0.01 to 0.05			Nc1ncnc2c1c(-c1ccc(Oc3ccccc3)cc1)nn2C1CCN(C2CCN(CCCN3CCN(c4ccc5c(c4)C(=O)N(C4CCC(=O)NC4=O)C5=O)CC3)CC2)CC1 (centres unmarked) [Compound 221, 5-(4-(3-(4-(4-amino-3-(4-phenoxyphenyl)-1H-pyrazolo[3,4-d]pyrimidin-1-yl)-[1,4′-bipiperidin]-1′-yl)propyl)piperazin-1-yl)-2-(2,6-dioxopiperidin-3-yl)isoindoline-1,3-dione]	> 10	1 to 10
> 90	0.01 to 0.05			Nc1ncnc2c1c(-c1ccc(Oc3ccccc3)cc1)nn2C1CCN(CC2CCN(CCN3CCN(c4ccc5c(c4)CN(C4CCC(=O)NC4=O)C5=O)CC3)CC2)CC1 (centres unmarked) [Compound 204, 3-(5-(4-(2-(4-((4-(4-amino-3-(4-phenoxyphenyl)-1H-pyrazolo[3,4-d]pyrimidin-1-yl)piperidin-1-yl)methyl)piperidin-1-yl)ethyl)piperazin-1-yl)-1-oxoisoindolin-2-yl)piperidine-2,6-dione]	< 1	1 to 10
		< 0.01	> 90	Nc1ncnc2c1c(-c1ccc(Oc3ccccc3)cc1)nn2C1CCN(CC2CC(N3CCN(c4ccc5c(c4)CN(C4CCC(=O)NC4=O)C5=O)CC3)C2)CC1 (centres unmarked) [Compound 531, 3-(5-(4-(3-((4-(4-amino-3-(4-phenoxyphenyl)-1H-pyrazolo[3,4-d]pyrimidin-1-yl)piperidin-1-yl)methyl)cyclobutyl)piperazin-1-yl)-1-oxoisoindolin-2-yl)piperidine-2,6-dione]	< 1	< 1
		0.01 to 0.05	> 90	Nc1ncnc2c1c(-c1ccc(Oc3ccccc3)cc1)nn2C1CCN(C2CCN(CC3CN(c4ccc5c(c4)CN(C4CCC(=O)NC4=O)C5=O)C3)C2)CC1 (centres unmarked) [Compound 426, 3-(5-(3-((3-(4-(4-amino-3-(4-phenoxyphenyl)-1H-pyrazolo[3,4-d]pyrimidin-1-yl)piperidin-1-yl)pyrrolidin-1-yl)methyl)azetidin-1-yl)-1-oxoisoindolin-2-yl)piperidine-2,6-dione]	< 1	< 1
> 75	0.01 to 0.05			Nc1ncnc2c1c(-c1ccc(Oc3ccccc3)cc1)nn2C1CCN(C2CCN(CCCN3CCC(c4ccc5c(c4)CN(C4CCC(=O)NC4=O)C5=O)CC3)CC2)CC1 (centres unmarked) [Compound 224, 3-(5-(1-(3-(4-(4-amino-3-(4-phenoxyphenyl)-1H-pyrazolo[3,4-d]pyrimidin-1-yl)-[1,4′-bipiperidin]-1′-yl)propyl)piperidin-4-yl)-1-oxoisoindolin-2-yl)piperidine-2,6-dione]	1 to 10	1 to 10
> 90	< 0.01			Nc1ncnc2c1c(-c1ccc(Oc3ccccc3)cc1)nn2C1CCN(C2CCN(C(=O)N3CCC(CN4CCN(c5ccc6c(c5)CN(C5CCC(=O)NC5=O)C6=O)CC4)CC3)CC2)CC1 (centres unmarked) [Compound 240, 3-(5-(4-((1-(4-(4-amino-3-(4-phenoxyphenyl)-1H-pyrazolo[3,4-d]pyrimidin-1-yl)-[1,4′-bipiperidine]-1′-carbonyl)piperidin-4-yl)methyl)piperazin-1-yl)-1-oxoisoindolin-2-yl)piperidine-2,6-dione]	1 to 10	< 1
> 75	0.01 to 0.05			Nc1ncnc2c1c(-c1ccc(Oc3ccccc3)cc1)nn2[C@@H]1CCCN(C2CCN(C(=O)N3CCC(CCCC4CCN(c5ccc6c(c5)CN(C5CCC(=O)NC5=O)C6=O)CC4)CC3)CC2)C1 (stereo partly drawn) [Compound 196, 3-(5-(4-(3-(1-((R)-3-(4-amino-3-(4-phenoxyphenyl)-1H-pyrazolo[3,4-d]pyrimidin-1-yl)-[1,4′-bipiperidine]-1′-carbonyl)piperidin-4-yl)propyl)piperidin-1-yl)-1-oxoisoindolin-2-yl)piperidine-2,6-dione]	1 to 10	1 to 10

The next lines start with the compound.

SMILES	Dmax (BTK) [%]	DC50 (BTK; BTK degradation) [µM]	DC50 (BTK; [1]) [µM]	Dmax (BTK; [2]) [%]	IC50 (Mino cells) [µM]	IC50 (JeKo-1 cells) [µM]
Nc1ncnc2c1c(-c1ccc(Oc3ccccc3)cc1)nn2C1CCN(CCN2CCC(CSc3ccc4c(c3)C(=O)N(C3CCC(=O)NC3=O)C4=O)CC2)CC1 (centres unmarked) [Compound 469, 5-(((1-(2-(4-(4-amino-3-(4-phenoxyphenyl)-1H-pyrazolo[3,4-d]pyrimidin-1-yl)piperidin-1-yl)ethyl)piperidin-4-yl)methyl)thio)-2-(2,6-dioxopiperidin-3-yl)isoindoline-1,3-dione]			< 0.01	> 90	1 to 10	1 to 10
NC1=NC=NC2C1C(c1ccc(Oc3ccccc3)cc1)=NN2C1CCN(C(=O)N2CCN(C3CN(c4ccc5c(c4)CN(C4CCC(=O)NC4=O)C5=O)C3)CC2)CC1 (centres unmarked) [Compound 504, 3-(5-(3-(4-(4-(4-amino-3-(4-phenoxyphenyl)-3a,7a-dihydro-1H-pyrazolo[3,4-d]pyrimidin-1-yl)piperidine-1-carbonyl)piperazin-1-yl)azetidin-1-yl)-1-oxoisoindolin-2-yl)piperidine-2,6-dione]			< 0.01	> 90	< 1	< 1
NC(=O)c1c(-c2ccc(Oc3ccccc3)cc2)nn2c1NCCC2C1CCN(C2CCN(C(=O)N3CCC(CN4CCN(c5ccc6c(c5)C(=O)N(C5CCC(=O)NC5=O)C6=O)CC4)CC3)CC2)CC1 (centres unmarked) [Compound 349, 7-(1′-(4-((4-(2-(2,6-dioxopiperidin-3-yl)-1,3-dioxoisoindolin-5-yl)piperazin-1-yl)methyl)piperidine-1-carbonyl)-[1,4′-bipiperidin]-4-yl)-2-(4-phenoxyphenyl)-4,5,6,7-tetrahydropyrazolo[1,5-a]pyrimidine-3-carboxamide]	> 90	0.01 to 0.05			1 to 10	1 to 10
NC1=NC=NC2C1C(c1ccc(Oc3ccccc3)cc1)=NN2C1CCCN(C2CN(C(=O)N3CC(C4CN(c5ccc6c(c5)CN(C5CCC(=O)NC5=O)C6=O)C4)C3)C2)C1 (centres unmarked) [Compound 502]			0.01 to 0.05	> 90	< 1	< 1
NC(=O)c1c(-c2ccc(Oc3ccccc3)cc2)nn2c1NCC[C@H]2C1CCN(C2CCN(C(=O)N3CCN(CC4CCN(c5ccc6c(c5)C(=O)N(C5CCC(=O)NC5=O)C6=O)CC4)CC3)CC2)CC1 (stereo partly drawn) [Compound 391, (7S)-7-(1′-(4-((1-(2-(2,6-dioxopiperidin-3-yl)-1,3-dioxoisoindolin-5-yl)piperidin-4-yl)methyl)piperazine-1-carbonyl)-[1,4′-bipiperidin]-4-yl)-2-(4-phenoxyphenyl)-4,5,6,7-tetrahydropyrazolo[1,5-a]pyrimidine-3-carboxamide]	> 75	0.01 to 0.05			> 10	> 10
Nc1ncnc2c1c(-c1ccc(Oc3ccccc3)cc1)nn2C1CCN(CCN2CCN(CCCSc3ccc4c(c3)C(=O)N(C3CCC(=O)NC3=O)C4=O)CC2)CC1 (centres unmarked) [Compound 467, 5-((3-(4-(2-(4-(4-amino-3-(4-phenoxyphenyl)-1H-pyrazolo[3,4-d]pyrimidin-1-yl)piperidin-1-yl)ethyl)piperazin-1-yl)propyl)thio)-2-(2,6-dioxopiperidin-3-yl)isoindoline-1,3-dione]			0.01 to 0.05	> 90	1 to 10	1 to 10
Nc1ncnc2c1c(-c1ccc(Oc3ccccc3)cc1)nn2C1CCN(C2CCN(CCCC#Cc3ccc(N4CCC(=O)NC4=O)cc3)C2)CC1 (centres unmarked) [Compound 537, 1-(4-(5-(3-(4-(4-amino-3-(4-phenoxyphenyl)-1H-pyrazolo[3,4-d]pyrimidin-1-yl)piperidin-1-yl)pyrrolidin-1-yl)pent-1-yn-1-yl)phenyl)dihydropyrimidine-2,4(1H,3H)-dione]			> 0.05	> 50	> 10	> 10
Nc1ncnc2c1c(-c1ccc(Oc3ccccc3)cc1)nn2[C@@H]1CCCN(C2CN(C(=O)N3CCC(N4CCN(c5ccc6c(c5)C(=O)N(C5CCC(=O)NC5=O)C6=O)CC4)CC3)C2)C1 (stereo partly drawn) [Compound 481, 5-(4-(1-(3-((R)-3-(4-amino-3-(4-phenoxyphenyl)-1H-pyrazolo[3,4-d]pyrimidin-1-yl)piperidin-1-yl)azetidin-1-carbonyl)piperidin-4-yl)piperazin-1-yl)-2-(2,6-dioxopiperidin-3-yl)isoindoline-1,3-dione]			< 0.01	> 90	1 to 10	1 to 10
NC(=O)c1c(-c2ccc(Oc3ccccc3)cc2)nn2c1NCCC2C1CCN(CC2CCN(C(=O)N3CCN(Cc4ccc5c(c4)C(=O)N(C4CCC(=O)NC4=O)C5=O)CC3)CC2)CC1 (centres unmarked) [Compound 359, 7-(1-((1-(4-((2-(2,6-dioxopiperidin-3-yl)-1,3-dioxoisoindolin-5-yl)methyl)piperazine-1-carbonyl)piperidin-4-yl)methyl)piperidin-4-yl)-2-(4-phenoxyphenyl)-4,5,6,7-tetrahydropyrazolo[1,5-a]pyrimidine-3-carboxamide]	> 50	> 0.05			> 10	> 10
Nc1ncnc2c1c(-c1ccc(Oc3ccccc3)cc1)nn2C1CCN(C2CCN(C(=O)N3CCC(c4ccc5c(c4)C(=O)N(C4CCC(=O)NC4=O)C5=O)CC3)CC2)CC1 (centres unmarked) [Compound 227, 5-(1-(4-(4-amino-3-(4-phenoxyphenyl)-1H-pyrazolo[3,4-d]pyrimidin-1-yl)-[1,4′-bipiperidine]-1′-carbonyl)piperidin-4-yl)-2-(2,6-dioxopiperidin-3-yl)isoindoline-1,3-dione]	> 50	> 0.05			> 10	> 10

Source: patent publication US12139492B2 (Endotarget Inc., priority 2021, dated 2024)
